Entries after “also recorded” stand apart in the source; their conditions may differ.
Assays:
Mmp9 [1] = experiment: MMP9 activity by gelatin zymography in conditioned media of mouse peritoneal macrophages cultured on fibronectin; format: cell-based; details: for maximal inhibition of fibronectin-induced MMP9 production/activity: both wild type and Arhgef1-deficient macrophages, aspirin up to 20 mM, L-161,982, PTA2 1.56 or 6.25 μM, L-655,240 28 μM
Protocol: FIG. 5. TP-induced MMP9 production is only partially dependent on COX activity. A) PEMs were cultured on fibronectin for 24 hours with 5% FCS, washed then treated with different concentration of aspirin or 1.6 μM PTXA2 at for an additional 24 hours without FCS. MMP9 activity was determined by zymography from supernatants of wild type (open) or Arhgef1−/− (filled) macrophages. Activity was normalized to activity generated from cells cultured on fibronectin without treatment. B) MMP9 activity in conditioned media from peripheral blood monocytes cultured as described in panel A. Data represents mean±SE (n=3 independent donors).
FIG. 6. The antioxidant mimetic MnTE-2PyP reduces MMP9 activity in macrophages. PEMs were cultured on fibronectin for 24 hours with 5% FCS, washed then treated with MnTE-2PyP at the indicated concentrations for an additional 24 hours without FCS. MMP9 activity was determined by zymography from supernatants of wild type (open) or Arhgef1−/− (filled) macrophages. Activity was normalized to activity generated from cells cultured on fibronectin without treatment.
FIG. 11. Cyclooxygenase activity but not EP4 receptor signaling is required for MMP9 production by murine macrophages cultured on fibronectin. A, representative MMP9 gelatin zymograms of conditioned media from peritoneal macrophages cultured on either plastic (ctl) or FN and treated with increasing concentrations of aspirin (1.25, 5.0, and 20 mM, respectively). Wild type (+/+) and Arhgef1^−/− (−/−) samples from separate zymograms are shown. Molecular weight standards and respective enzymatic activities of MMP9 and MMP2 are shown. B, quantitation of MMP9 activity as determined by densitometric analysis of zymograms in A. MMP 9 activity is shown in arbitrary units and represents n=6 for both wild type (open bars) and Arhgef1^−/− (black bars) samples. The results are compiled from two independent experiments. The data represent the means±S.E. *, p<0.05 Student's two-tailed t test compared with conditioned media from cells cultured on plastic. #, p<0.05 Student's two-tailed test comparing conditioned media from wild type cells to Arhgef1^−/− cells cultured under identical conditions. $, p<0.05 Student's two-tailed t test compared with conditioned media from cells cultured on fibronectin. C, quantitation of MMP9 activity in conditioned media from macrophages cultured on fibronectin in the presence of the EP4 antagonist L161,982 (10 μM). MMP9 activity was normalized to fibronectin response for each genotype. The results are compiled from two independent experiments with wild type (open bars, n=5) and Arhgef1^−/− (black bars, n=5) samples. The data represent the means±S.E. *, p<0.05 Student's two-tailed t test compared with conditioned media from cells cultured on plastic. #, p<0.05 Student's two-tailed t test compared with conditioned media from cells cultured on fibronectin.
FIG. 12. Thromboxane receptor signaling is necessary for fibronectin-induced MMP9 production by macrophages and is attenuated by Arhgef1. A, representative gelatin zymograms of conditioned media from macrophages cultured on plastic (ctl) or FN and treated with 1.56 or 6.25 μM of the thromboxane receptor antagonist PTA2. Wild type (+/+) and Arhgef1^−/− (−/−) samples from separate zymograms are shown. B, quantitation of MMP9 activity as determined by densitometric analysis of zymograms in A. The results are representative of two independent experiments. C, representative zymograms from conditioned media from macrophages cultured on plastic or fibronectin and treated with 28 μM of the thromboxane receptor antagonist L-655,240. D, quantitation of MMP9 activity as determined by densitometric analysis of zymograms in C. The results are compiled from two independent experiments with n=4 for both wild type (open bars) and Arhgef1^−/− (black bars) samples. […]

MMP2 = MMP2 activity by gelatin zymography in conditioned media of mouse peritoneal macrophages cultured on fibronectin; format: cell-based; details: wild type and Arhgef1−/− macrophages; 20 mM aspirin or 28 μM L-655,240
Protocol: FIG. 12. Thromboxane receptor signaling is necessary for fibronectin-induced MMP9 production by macrophages and is attenuated by Arhgef1. A, representative gelatin zymograms of conditioned media from macrophages cultured on plastic (ctl) or FN and treated with 1.56 or 6.25 μM of the thromboxane receptor antagonist PTA2. Wild type (+/+) and Arhgef1^−/− (−/−) samples from separate zymograms are shown. B, quantitation of MMP9 activity as determined by densitometric analysis of zymograms in A. The results are representative of two independent experiments. C, representative zymograms from conditioned media from macrophages cultured on plastic or fibronectin and treated with 28 μM of the thromboxane receptor antagonist L-655,240. D, quantitation of MMP9 activity as determined by densitometric analysis of zymograms in C. The results are compiled from two independent experiments with n=4 for both wild type (open bars) and Arhgef1^−/− (black bars) samples. […] E, MMP2 activity was quantitated in conditioned media as previously described for MMP9. […] The data represent the means±S.E. F, MMP9 activity was quantitated as previously described and normalized to a percentage of fibronectin response for each genotype. […] G, relative Mmp9 expression was measured by qPCR in macrophages cultured on fibronectin in the presence of the thromboxane receptor agonist (U-46619, 10 nM), S1P (40 nM), or LPA (10 μM). […]

Mmp9 [2] = experiment: Mmp9 expression by qPCR in mouse peritoneal macrophages cultured on fibronectin; format: cell-based
Protocol: (§1) FIG. 4. TP signaling is required for MMP9 production in vitro and in vivo. A) Macrophage Mmp9 expression after culture on fibronectin for 24 hrs in media/vehicle (−), 40 nM S1P, 10 μM LPA, 10 nM U-46619 (TP agonist) or 6 μM PTXA2 (TP antagonist). Data represent normalized mean±SE. B) Arhgef1−/− mice (n=16) were exposed to aerosolized PBS (n=16), 220 μM PTXA2 (n=6) or 190 μM U-46619 (n=10) for 20 minutes and BAL harvested 1 day later and MMP activity measured.
FIG. 12. Thromboxane receptor signaling is necessary for fibronectin-induced MMP9 production by macrophages and is attenuated by Arhgef1. A, representative gelatin zymograms of conditioned media from macrophages cultured on plastic (ctl) or FN and treated with 1.56 or 6.25 μM of the thromboxane receptor antagonist PTA2. Wild type (+/+) and Arhgef1^−/− (−/−) samples from separate zymograms are shown. B, quantitation of MMP9 activity as determined by densitometric analysis of zymograms in A. The results are representative of two independent experiments. C, representative zymograms from conditioned media from macrophages cultured on plastic or fibronectin and treated with 28 μM of the thromboxane receptor antagonist L-655,240. D, quantitation of MMP9 activity as determined by densitometric analysis of zymograms in C. The results are compiled from two independent experiments with n=4 for both wild type (open bars) and Arhgef1^−/− (black bars) samples. The data represent the means±S.E. *, p<0.05 Student's two-tailed t test compared with conditioned media from cells cultured on plastic. #, p<0.05 Student's two-tailed t test comparing conditioned media from wild type cells to Arhgef1^−/− cells cultured under identical conditions. $, p<0.05 Student's two-tailed t test compared with conditioned media from cells cultured on fibronectin. E, MMP2 activity was quantitated in conditioned media as previously described for MMP9. The results are compiled from four independent experiments with n=10 for wild type (open bars) and Arhgef1^−/− (black bars) samples cultured on either plastic or fibronectin. For cells treated with 20 mM aspirin, n=6 for wild type (open bars) and Arhgef1^−/− (black bars) samples. For cells treated with 28 μM L-655,240, n=4 for wild type (open bars) and Arhgef1^−/− (black bars) samples. The data represent the means±S.E. F, MMP9 activity was quantitated as previously described and normalized to a percentage of fibronectin response for each genotype. The cells were either untreated or treated with 0.5% Me2SO or 28 μM L-655,240. The results are compiled from two independent experiments with n=3 for all conditions and genotypes. The data represent the means±S.E. *, p<0.05 Student's two-tailed t test compared with conditioned media from cells cultured on fibronectin. G, relative Mmp9 expression was measured by qPCR in macrophages cultured on fibronectin in the presence of the thromboxane receptor agonist (U-46619, 10 nM), S1P (40 nM), or LPA (10 μM). […] Wild type (open bars, n=12, 6, 3, and 3 for fibronectin, +U-46619, +S1P, and +LPA, respectively) and Arhgef1^−/− (black bars, n=14, 6, 3, and 2, respectively) from at least two independent experiments. The data represent the means±S.E. *, p<0.05 Student's two-tailed t test compared with conditioned media from cells cultured on fibronectin, #, p<0.05 Student's two-tailed t test comparing conditioned media from wild type cells to Arhgef1^−/− cells cultured under identical conditions. […]

Mmp9 [3] = experiment: MMP9 activity in BAL of Arhgef1−/− mice after aerosol exposure; format: in vivo, mouse; details: inhalation of aerosol 20 min (220 μM PTXA2, 190 μM U-46619), BAL 24 hours later
Protocol: as §1

MMP9 [4] = experiment: MMP9 activity by gelatin zymography, peripheral blood monocytes from COPD patients on fibronectin; format: cell-based, human; details: monocytes from 3 COPD patients; dose response 0.4 μM to 260 μM
Protocol: FIG. 17. Seratrodast (AA-2414) treatment on peripheral blood monocytes from 3 COPD patients. Generated dose response curve going firm 0.4 μM to 260 μM. Measured response by gelatin zymography of conditioned media. A is a representative zymogram from a single individual COPD patient. B depicts results compiled from three COPD patients. *, p<0.05 for ctl vs FN; #, p<0.05 FN vs FN+seratrodast.
For other human studies, we quantitated MMP9 by ELISA in conditioned medium (ELISA TECH, Aurora, Colo.).
Novex (Invitrogen) zymogram 10% gelatin gels were used for zymography as indicated per the manufacturer's instructions on conditioned media. Protease activity was detected as a loss of gelatin at the molecular weight of the indicated MMP and quantified by densitometric analysis using ImageJ (National Institutes of Health) software.
As another example, the thromboxane receptor antagonist seratrodast (AA-2414) was used on peripheral blood monocytes from 3 COPD patients and data collected as shown in FIG. 17.

[5] = wild type and Arhgef1-deficient macrophages on fibronectin, 40 nM S1P, 10 μM LPA, 6 μM PTXA2, 24 h

## CCCCc1nn(-c2ccccc2C(F)(F)F)c(=O)n1Cc1ccc(-c2ccccc2S(=O)(=O)NC(=O)c2sccc2C)cc1 [L-161,982]
Mmp9 [1]
  maximal inhibition of fibronectin-induced MMP9 production/activity: −40%

## Cc1c(CC(C)(C)C(=O)O)n(Cc2ccc(Cl)cc2)c2ccc(F)cc12 [L-655,240, 1-[(4-Chlorophenyl)methyl]-5-fluoro-α,α,3-trimethyl-1H-indole-2-propanoic acid]
Mmp9 [1]
  maximal inhibition of fibronectin-induced MMP9 production/activity: −90%
Mmp9 [1]; mouse macrophages, wild type and Arhgef1−/−, 1.6 μM PTXA2, 28 μM L-655,240
  fibronectin-mediated MMP9 activity (effect in words): significantly reduced MMP9 activity
MMP2
  MMP2 activity: not affected

## CCCCCCCCCCCCC/C=C/[C@@H](O)[C@@H](N)COP(=O)(O)O [S1P, sphingosine-1-phosphate]
Mmp9 [2]; [5]
  Mmp9 expression: slight decrease in Mmp9 expression; also recorded: modestly depress Mmp9 expression

## CCCCC[C@H](O)/C=C/[C@@H]1[C@@H](C/C=C\CCCC(=O)O)[C@H]2CO[C@@H]1C2 [U-46619]
Mmp9 [2]; Arhgef1-deficient macrophages on fibronectin, 10 nM U-46619
  Mmp9 expression: expressed significantly more Mmp9; also recorded: considerably increased Mmp9 expression
Mmp9 [2]; wild type macrophages on fibronectin, 10 nM U-46619
  Mmp9 expression: did not affect wild type cells
Mmp9 [3]
  MMP9 activity in BAL: dramatically increased MMP9 activity

## CC1=C(C)C(=O)C(C(CCCCCC(=O)O)c2ccccc2)=C(C)C1=O (stereo not shown) [seratrodast, 7-phenyl-7-(2,4,5-trimethyl-3,6-dioxocyclohexa-1,4-dien-1-yl)heptanoic acid]
MMP9 [4]
  MMP9 activity versus dose: inverse relationship between MMP9 activity and seratrodast dose

## lysophosphatidic acid [LPA]
Mmp9 [2]; [5]
  Mmp9 expression: slight decrease in Mmp9 expression; also recorded: modestly depress Mmp9 expression

— patent publication US9820951B2, “Pulmonary disease treatment and diagnosis based on Arhgef1” (NATIONAL JEWISH HEALTH, A NON-PROFIT ORGANIZATION, priority 2011, dated 2017)
